In PMC7651859, “Identification of 6-amino-1H-pyrazolo[3,4-d]pyrimidines with in vivo efficacy against visceral leishmaniasis” (RSC Medicinal Chemistry, 2020):
Converted amounts (≈) assume the structure as drawn.

Columns and labels:
[1] = test system: L. donovani amastigotes; experiment: Ld InMac intramacrophage Leishmania donovani assay; format: cell-based; details: for EC50: Leishmania donovani, L. donovani amastigotes in THP-1 cells, mean of n ≥ 3, read-out: Ld InMac pEC50 (converted); for loss of potency (less active) versus comparator compound: versus matched comparator
Description: (§1) For the identification of DDD853651/GSK3186899, which contained a trans-1,4-cyclohexyldiamine, a key strategy was to optimise the balance between potency in the intracellular Leishmania assay (L. donovani in THP-1 cells, referred to as Ld InMac assay[9]) and solubility.[10] In that case, we focused on 2 (Table 1), where the sulfonamide was required for potency but was poorly soluble. […] To this end, we examined a 4-aminopiperidine central unit with both sulfonamide and amide substituents (Table 1). […] We therefore selected 4 as a suitable start-point for further chemistry. […] We noted that either lengthening the linker to the aromatic ring, or removing it, led to a loss of activity (6 and 7 respectively).
(§2) Intramacrophage Leishmania donovani Assay

[2] = test system: THP-1 cells; experiment: THP-1 host cell toxicity readout of the Ld InMac assay; format: cell-based; details: Homo sapiens; host THP-1 cells; mean of n ≥ 3; read-out: THP-1 pEC50 (converted)
Description: as §1, §2

[3] = CAD kinetic aqueous solubility; format: physicochemical; details: pH 7.4, pH7.4 phosphate buffered saline
Description: CAD Aqueous Solubility 11
5µl of 10mM DMSO stock solution is diluted to 100 µ l with pH7.4 phosphate buffered saline,
equilibrated for 1 hour at room temperature and filtered through Millipore MultiscreenHTS-PCF

[4] = Stability in mouse liver microsomes (intrinsic clearance); format: in vitro ADME; details: mouse liver microsomal intrinsic clearance, 0.5 μM
Description: Stability in Microsomes 10
Test compound (0.5 μM) was incubated with female CD1 mouse (Xenotech) liver microsomes and their action started with addition of excess NADPH (8 mg/mL 50 mM potassium phosphate buffer, pH 7.4). Immediately, at time zero, then at 3, 6, 9, 15, and 30 min, an aliquot (50 μL) of the incubation mixture was removed and mixed with acetonitrile (100 μL) to stop the reaction.
Internal standard was added to all samples, the samples centrifuged to sediment precipitated protein, and the plates then sealed prior to UPLC-MS/MS analysis using a Xevo TQs micro (Waters Corporation, USA). XLfit (IDBS, UK) was used to calculate the exponential decay and consequently the rate constant (k) from the ratio of the peak area of test compound to internal standard at each time point. The rate of intrinsic clearance (Cl i) of each test compound was then calculated using the equation Cl i (mL/min/g liver) = k × V × microsomal protein yield, where V (mL/mg protein) is the incubation volume/mg protein added and […]
microsomal protein yield is taken as 52.5 mg protein/g liver. Verapamil (0.5 μM) was used as a positive control to confirm acceptable assay performance. […]

Row | Compound | EC50 [1] | EC50 [2] | solubility at 1 h [3] | more active than comparator compound ([1]; Ld InMac, 4 versus 3) | Cli mouse [4] | loss of potency (less active) versus comparator compound ([1]; Ld InMac)
1 | CC(C)Cc1n[nH]c2nc(N[C@H]3CC[C@H](NC(=O)Cc4ccccc4)CC3)ncc12 [Compound 3] | > 50.1 µM | > 50.1 µM | 51 µM (≈ 20.7 µg/mL) | – | – | –
2 | CC(C)Cc1n[nH]c2nc(NC3CCN(C(=O)Cc4ccccc4)CC3)ncc12 [Compound 4] | 7.94 µM | > 50.1 µM | 59 µM (≈ 23.2 µg/mL) | > 10 fold | 18 ml min^–1 g^–1 | –
3 | CC(C)Cc1n[nH]c2nc(NC3CCN(S(=O)(=O)Cc4ccccc4)CC3)ncc12 [Compound 5] | 12.6 µM | > 50.1 µM | 10 µM (≈ 4.29 µg/mL) | – | >50 ml min^–1 g^–1 | > 10 fold
4 | CC(C)Cc1n[nH]c2nc(NC3CCN(C(=O)CCc4ccccc4)CC3)ncc12 [Compound 6] | 20 µM | > 50.1 µM | – | – | – | –
5 | CC(C)Cc1n[nH]c2nc(NC3CCN(C(=O)c4ccccc4)CC3)ncc12 [Compound 7] | > 50.1 µM | > 50.1 µM | 291 µM (≈ 110 µg/mL) | – | 7 ml min^–1 g^–1 | –
6 | CC(C)Cc1n[nH]c2nc(NC3CCN(C(=O)Cc4ccc(F)cc4F)CC3)ncc12 [Compound 8] | 1.58 µM | > 50.1 µM | 26 µM (≈ 11.1 µg/mL) | – | 12 ml min^–1 g^–1 | –
7 | CC(C)Cc1n[nH]c2nc(NC3CCN(C(=O)Cc4ccc(Cl)cc4Cl)CC3)ncc12 [Compound 9] | 10 µM | > 50.1 µM | 26 µM (≈ 12 µg/mL) | – | 30 ml min^–1 g^–1 | –
8 | CC(C)Cc1n[nH]c2nc(NC3CCN(C(=O)C(C)c4ccccc4)CC3)ncc12 (stereo not shown) [Compound 10] | 5.01 µM | > 50.1 µM | 140 µM (≈ 56.9 µg/mL) | – | – | –
9 | CC(C)(C)Cc1n[nH]c2nc(NC3CCN(C(=O)Cc4ccc(F)cc4F)CC3)ncc12 [Compound 11] | > 50.1 µM | > 50.1 µM | 27 µM (≈ 11.9 µg/mL) | – | 22.0 ml min^–1 g^–1 | –
10 | O=C(Cc1ccc(F)cc1F)N1CCC(Nc2ncc3c(C4CC4)n[nH]c3n2)CC1 [Compound 12] | 1.26 µM | > 50.1 µM | 39 µM (≈ 16.1 µg/mL) | – | 5.0 ml min^–1 g^–1 | –
11 | O=C(Cc1ccc(F)cc1F)N1CCC(Nc2ncc3c(C4CCOCC4)n[nH]c3n2)CC1 [Compound 13] | 1 µM | > 50.1 µM | 78 µM (≈ 35.6 µg/mL) | – | 0.5 ml min^–1 g^–1 | –
12 | O=C(Cc1ccc(F)cc1F)N1CCC(Nc2ncc3c(CN4CCOCC4)n[nH]c3n2)CC1 [Compound 14] | 25.1 µM | > 50.1 µM | – | – | <0.5 ml min^–1 g^–1 | –
13 | O=C(Cc1ccc(F)cc1F)N1CCC(Nc2ncc3c(N4CCOCC4)n[nH]c3n2)CC1 [Compound 15] | 0.794 µM | > 50.1 µM | 14 µM (≈ 6.4 µg/mL) | – | 2 ml min^–1 g^–1 | –
14 | CC(C)Oc1n[nH]c2nc(NC3CCN(C(=O)Cc4ccc(F)cc4F)CC3)ncc12 [Compound 16] | 6.31 µM | > 50.1 µM | 33 µM (≈ 14.2 µg/mL) | – | – | –
15 | O=C(Cc1ccc(F)cc1F)N1CCC(Nc2ncc3c(-c4ccccc4)n[nH]c3n2)CC1 [Compound 17] | 0.316 µM | > 50.1 µM | < 1 µM | – | 7.2 ml min^–1 g^–1 | –
16 | O=C(Cc1ccc(F)cc1F)N1CCC(Nc2ncc3c(-c4ccccn4)n[nH]c3n2)CC1 [Compound 18] | 0.794 µM | > 50.1 µM | 23 µM (≈ 10.3 µg/mL) | – | 6.7 ml min^–1 g^–1 | –
17 | Cn1nccc1-c1n[nH]c2nc(NC3CCN(C(=O)Cc4ccc(F)cc4F)CC3)ncc12 [Compound 19] | 3.16 µM | 20 µM | 30 µM (≈ 13.6 µg/mL) | – | 3.3 ml min^–1 g^–1 | 10 fold
18 | COc1ncccc1-c1n[nH]c2nc(NC3CCN(C(=O)Cc4ccc(F)cc4F)CC3)ncc12 [Compound 21] | 0.0794 µM | > 50.1 µM | 25 µM (≈ 12 µg/mL) | – | 15 ml min^–1 g^–1 | –
19 | CC(C)Cc1n[nH]c2nc(N(C)C3CCN(C(=O)Cc4ccc(F)cc4F)CC3)ncc12 [Compound 22] | > 50.1 µM | > 50.1 µM | – | – | – | > 10 fold
20 | COc1ccccc1-c1n[nH]c2nc(OC3CCN(C(=O)Cc4ccc(F)cc4F)CC3)ncc12 [Compound 23] | 20 µM | > 50.1 µM | – | – | – | > 10 fold
21 | CC(C)Cc1nn(C)c2nc(NC3CCN(C(=O)Cc4ccc(F)cc4F)CC3)ncc12 [Compound 24] | > 50.1 µM | > 50.1 µM | – | – | – | > 10 fold

Row | Compound | EC50 [1] | EC50 [2] | solubility at 1 h [3] | more active than comparator compound ([1]; Ld InMac, 4 versus 3) | Cli mouse [4] | loss of potency (less active) versus comparator compound ([1]; Ld InMac)
22 | CC(C)Cc1noc2nc(NC3CCN(C(=O)Cc4ccc(F)cc4F)CC3)ncc12 [Compound 25] | > 50.1 µM | > 50.1 µM | – | – | – | > 10 fold
23 | COc1ccccc1-c1c[nH]c2nc(NC3CCN(C(=O)Cc4ccc(F)cc4F)CC3)ncc12 [Compound 26] | > 50.1 µM | > 50.1 µM | – | – | – | > 10 fold
24 | COc1ccccc1C(=O)c1cnc(NC2CCN(C(=O)Cc3ccc(F)cc3F)CC2)nc1N [Compound 27] | 6.31 µM | 10 µM | – | – | – | –
25 | COc1ccccc1C(=O)c1cnc(NC2CCN(C(=O)Cc3ccc(F)cc3F)CC2)nc1 [Compound 28] | 6.31 µM | > 50.1 µM | – | – | – | –
26 | O=C(Cc1ccc(F)cc1F)N1CCC[C@H](Nc2ncc3c(-c4ccccn4)n[nH]c3n2)C1 [Compound 29] | 12.6 µM | > 50.1 µM | – | – | – | –
27 | O=C(Cc1ccc(F)cc1F)N1CCC[C@@H](Nc2ncc3c(-c4ccccn4)n[nH]c3n2)C1 [Compound 30] | > 50.1 µM | > 50.1 µM | – | – | – | –
28 | COc1ccccc1-c1n[nH]c2nc(N[C@H]3CCC[C@@H](NC(=O)Cc4ccc(F)cc4F)C3)ncc12 [Compound 31] | 31.6 µM | 25.1 µM | – | – | – | –
29 | COc1ccccc1-c1n[nH]c2nc(N[C@H]3CCC[C@H](NC(=O)Cc4ccc(F)cc4F)C3)ncc12 [Compound 32] | 15.8 µM | 31.6 µM | – | – | – | –
30 | COc1ccccc1-c1n[nH]c2nc(NC3(C)CCN(C(=O)Cc4ccc(F)cc4F)CC3)ncc12 [Compound 33] | 3.98 µM | 39.8 µM | – | – | – | –
31 | O=C(Cc1ccc(F)cc1F)N1CCC(CNc2ncc3c(-c4ccccn4)n[nH]c3n2)CC1 [Compound 34] | > 50.1 µM | > 50.1 µM | – | – | – | –
32 | COc1ccccc1-c1n[nH]c2nc(NCC3CN(C(=O)Cc4ccc(F)cc4F)C3)ncc12 [Compound 35] | > 50.1 µM | > 50.1 µM | – | – | – | –
33 | CC(C)(CNC(=O)Cc1ccc(F)cc1F)Nc1ncc2c(-c3ccccn3)n[nH]c2n1 [Compound 36] | > 50.1 µM | > 50.1 µM | – | – | – | –
34 | COc1ccccc1-c1n[nH]c2nc(NC3CCN(S(=O)(=O)CCC(F)(F)F)CC3)ncc12 [Compound 37] | 0.2 µM | > 50.1 µM | < 1 µM | – | 14 ml min^–1 g^–1 | –
35 | CCOC(=O)N1CCC(Nc2ncc3c(-c4ccccc4OC)n[nH]c3n2)CC1 [Compound 38] | 0.501 µM | 39.8 µM | 24 µM (≈ 9.51 µg/mL) | – | 14 ml min^–1 g^–1 | –
36 | COc1ccccc1-c1n[nH]c2nc(NC3CCN(C(=O)OCc4ccccc4)CC3)ncc12 [Compound 39] | 0.398 µM | > 50.1 µM | – | – | 9 ml min^–1 g^–1 | –
37 | COc1ccccc1-c1n[nH]c2nc(NC3CCN(C(=O)N4CCOCC4)CC3)ncc12 [Compound 40] | 2 µM | > 50.1 µM | 79 µM (≈ 34.6 µg/mL) | – | 2 ml min^–1 g^–1 | –
38 | COc1ccccc1-c1n[nH]c2nc(NC3CCN(C(=O)Cc4ccc(F)c(F)c4)CC3)ncc12 [Compound 43] | 0.0251 µM | 15.8 µM | 53 µM (≈ 25.4 µg/mL) | – | 6.3 ml min^–1 g^–1 | –
39 | O=C(CC1CC1)N1CCC(Nc2ncc3c(-c4ccccn4)n[nH]c3n2)CC1 [Compound 45] | 5.01 µM | > 50.1 µM | ≥ 392 µM | – | – | –
40 | O=C(CC1CC1)N1CCC(Nc2ncc3c(N4CCOCC4)n[nH]c3n2)CC1 [Compound 46] | 15.8 µM | > 50.1 µM | – | – | – | –
41 | C[C@@H]1[C@H](O)[C@@H](C)/C=C/C=C/C=C/C=C/C=C/C=C/C=C/[C@H](O[C@@H]2O[C@H](C)[C@@H](O)[C@H](N)[C@@H]2O)C[C@@H]2O[C@](O)(C[C@@H](O)C[C@@H](O)[C@H](O)CC[C@@H](O)C[C@@H](O)CC(=O)O[C@H]1C)C[C@H](O)[C@H]2C(=O)O [amphotericin B, reference compound] | 0.2 µM | – | – | – | – | –
42 | CCCCCCCCCCCCCCCCOP(=O)([O-])OCC[N+](C)(C)C [miltefosine, reference compound] | 0.794 µM | – | – | – | – | –
